Our source for the melting point values is a melting point compilation (Tetko et al.; mined from patent text by program, amines drawn as free bases though some values may be those of a salt).

The term melting point denotes the temperature of the solid-liquid transition. Molecule `COc1ccc2c(c1OCc1ccccc1)CC(C(=O)O)N(C(=O)C(c1ccccc1)c1ccccc1)C2` (racemic) yielded a melting point of 157 to 159 °C.

`O=[N+]([O-])c1cnc2cc(Cl)ccc2c1Nc1ccc(F)cc1` returned a melting point of 198 to 200 °C.

On to `Nc1ccccc1C(=O)Nc1cccc2cc(Br)cnc12`, for which the melting point was in the range of 147 to 150 °C.

Molecule `CCc1oc2ccccc2c1C(=O)N(Cc1ccccc1)Cc1ccc2c(Br)c(O)ccc2c1` displayed a melting point of 125 to 130 °C.

As for `N#Cc1cccc(-c2nc(-c3ccc(C(=O)O)cc3)cc3cccnc23)c1`, the melting point is more than 300 °C.

`NC(=O)CNC(=O)c1sc(Nc2ccccc2)c2c1CCc1cnoc1-2` registered a melting point of 213 to 214 °C.

Turning to `Cc1nc2cnccc2n1-c1ccc(Cn2c(=O)oc3ccccc32)cc1`, the melting point was in the range of 84 to 87 °C.

Molecule `CC(C)(C)OC(=O)NCCc1cccc(OCCC2Oc3ccccc3N(Cc3ccc(Cl)cc3)C2=O)c1` (configuration not stated) showed a melting point of 97 to 98.5 °C.

Consider `CCOC(=O)COc1ccc2c(C)c(CCN(CC)CC)c(=O)oc2c1Br`, for which the melting point was 150 to 151 °C.

`Clc1ccc(Nc2nc3ccccc3c3[nH]c(C4CCCC4)nc23)cc1Cl`: the melting point lay within 114 to 115 °C.

The molecule `COC1=CC(=O)C(OC)=C(CCCC2=C(OC)C(=O)C=C(OC)C2=O)C1=O` displayed a melting point of 157 to 159 °C.

As for `C[C@H](C(=O)OCc1ccccc1)n1ccn(-c2ccc(OCC(F)(F)C(F)F)cc2)c1=O`, the melting point lay in the range of 75 to 76 °C.

As for `N#Cc1ccc(-c2cc(-c3ccc(C#N)cc3[N+](=O)[O-])on2)cc1`, the melting point was in the range of 280 to 281 °C.

`CCOc1ccccc1CNC(=O)c1ccc2cnccc2n1` had a melting point of 79 to 80 °C.

The molecule `CSc1nn2c(=O)[nH]c(C)nc2c1S(=O)(=O)c1ccccc1` gave a melting point of more than 300 °C.

In the case of `COC(=O)c1[nH]c(C)c(C)c1OCCCCl`, the melting point is 117 to 120 °C.

The molecule `CCCOc1ccc(COCCO)cc1-c1nc2c(CCC)nn(C)c2c(=O)[nH]1` registered a melting point of 101 to 102 °C.

The molecule `CC(C)(C)c1cc(CCc2ccccc2NC(=O)NC2CCN(Cc3ccc(F)c(F)c3)CC2)cc(C(C)(C)C)c1O` registered a melting point of 155 to 156 °C.

`CC(=O)NC1=NN(c2ccc(Cl)cc2)CC1` had a melting point of 171 to 173 °C.

`O=C(O)c1cnc2c3cccc([N+](=O)[O-])c3ccn2c1=O` gave a melting point of more than 300 °C.

Regarding `CS(=O)(=O)c1ccc(-c2ccc3cnc(Nc4ccc(N5CCOCC5)nc4)nn23)cc1`, the melting point fell in the range of 171 to 177 °C.

Take `Cc1cccc(-n2nnc3cccnc32)n1`: the melting point was in the range of 144 to 145 °C.

As for `O=C(O)CCCCN1C(=O)c2ccc([N+](=O)[O-])cc2C1=O`, the melting point was found to be 172 °C.

`CCCCc1nc(C(C)O)c(C(=O)OCC)[nH]1` (configuration not stated) returned a melting point of 149 °C.

As for `O=C(O)Cc1csc(-c2ccccc2O)n1`, the melting point was in the range of 173 to 174 °C.

The molecule `COC(=O)/C(=C/C=C/c1cn(C(C)=O)c2ccccc12)OC` had a melting point of 107 to 108 °C.

`NC(=O)c1ccc(Cn2ccc(OCc3ccc(F)cc3F)c(Cl)c2=O)cc1` came in with a melting point of 235 to 238 °C.

`CC1=NN(C)c2nc(C)c(CCN3CCN(c4n[nH]c5ccccc45)CC3)c(=O)n2C1` showed a melting point of 199 °C.

`Nc1cccc(Oc2ccc(C(=O)c3cccc(N)c3)cc2)c1` came in with a melting point of 48 to 52 °C.

On to `Cn1c(-c2ccc(-c3ccccn3)cc2)c(C(=O)N2CCC(OCC(=O)O)CC2)c(=O)n1-c1ccc(C#N)cc1`, for which the melting point lay in the range of 156 to 159 °C.

As for `CCCc1c(O)ccc2c(=O)cc(C(=O)OCC)oc12`, the melting point was 155 to 162 °C.

`COC1CN(C(=O)c2cc(-c3ccccc3)c(=O)n3c2-c2cc(Cl)ccc2CN3)C1` returned a melting point of 238 to 239 °C.

With `CCC(CC)c1ccc(Cl)c2nc3n(c12)CCCCN3c1ncc(C(F)(F)F)cc1Cl`, the melting point lay in the range of 108 to 110 °C.

`Oc1ccc2c(c1)COc1c-2cc2ccc(O)cc2c1-c1ccncc1` yielded a melting point of more than 250 °C.

As for `CCOC(=O)CCCNc1cccc(Br)c1`, the melting point was 65 °C.

For `Cc1cc2[nH]c(=O)ccc(=O)c2cc1C`, the melting point came out at 258 °C.

`COC(=O)CCC(=O)Nc1cccc2c1C(=O)N(C1CCC(=O)NC1=O)C2=O` (configuration not stated) returned a melting point of 224 to 226 °C.

Molecule `O=c1[nH]cnc2ccc(F)cc12` had a melting point of 252 to 255 °C.

The molecule `CN(C)c1ccc(CNc2nc(Nc3cccc(NS(C)(=O)=O)c3)nc3[nH]cnc23)cc1` showed a melting point of 138 to 142 °C.

As to `CC(Nc1ccc(Cl)c(Cl)c1)C(=O)O` (configuration not stated), the melting point lay in the range of 148 to 149 °C.

In the case of `COc1ccc2cc([C@H](C)C(=O)OCC(=O)COC(=O)c3ccc(CO[N+](=O)[O-])cc3)ccc2c1`, the melting point fell in the range of 105 to 107 °C.

With `Cc1ccc(-c2ccc3c(c2)C=C(C(=O)NC2CCN(CC4=CCCCCCCC4)CC2)CCO3)cc1`, the melting point fell in the range of 128 to 130 °C.

`CCCCNC(=O)Nc1ccc(SCC)cc1C(=O)NCC1CCN(C(c2ccccc2)c2ccccc2)CC1` came in with a melting point of 159 to 160 °C.

The molecule `COC(=O)C(CCSC)N(C(=O)OC(C)(C)C)C(=O)c1ccc(N)c(C)c1` (configuration not stated) registered a melting point of 163 to 165 °C.

Regarding `COC(=O)COc1c(C)cc(SCc2sc(-c3ccc(C(F)(F)F)cc3)nc2C)cc1C`, the melting point was in the range of 104 to 105 °C.

`CCCCOC(=O)C(CC(=O)O)NCCCN(C)C` (configuration not stated) displayed a melting point of 154 to 158 °C.

With `CC(C)(CO)NS(=O)(=O)c1cccc(NC(=O)c2cnn3c(C(F)(F)F)cc(-c4ccc(Cl)cc4)nc23)c1`, the melting point is 271 °C.

`COc1ccc(OC)c2c1CCC(O)(CCO)C2` (configuration not stated) returned a melting point of 121 to 122 °C.

Turning to `CC12CC(=O)C3C(CCC4CC(=O)CCC43C)C1CCC2C(=O)CCl` (configuration not stated), the melting point fell in the range of 168 to 172 °C.

`CCc1n[nH]c(=O)n1N` had a melting point of 171 °C.

As for `CCOC(=O)CC(c1cccnc1)N1CCN(CCCOc2ccc(C#N)cc2)C(=O)C1=O` (configuration not stated), the melting point was 110 to 112 °C.

For the molecule `COC(=O)c1cc(NC(=O)c2ccccc2Cl)c2cc(Cc3ccc(F)cc3)cnc2c1O`, the melting point was 230 to 232 °C.

In turn, `Cc1cc(NS(=O)(=O)c2ccccc2)cnc1CCCC(=O)O` returned a melting point of 169 to 179 °C.

On to `O=C(Nc1ccc2ccc(Cl)nc2n1)C1=CSCCO1`, for which the melting point amounted to 270 °C.

The molecule `COc1cccc(C=CC(=O)N2CCNCC2)c1` gave a melting point of 84 to 86 °C.

`CC(O)c1cccc(Nc2ccccc2C(=O)O)c1Cl` (configuration not stated) gave a melting point of 169 to 171 °C.

For the molecule `COc1ccc(CCCCCCN)cc1`, the melting point fell in the range of 63 to 65 °C.

Consider `CN1Cc2c(C(=O)O)ncn2-c2cccnc2C1=O`, for which the melting point was 292 to 295 °C.

The molecule `COc1ccc(COc2cccc(C(=O)Nc3ccc(S(C)=O)cc3)c2)cc1` (configuration not stated) displayed a melting point of 135 to 136 °C.

For the molecule `O=S(=O)(c1ccccc1)N1CCCC1c1cccc(F)c1` (racemic), the melting point came out at 96 °C.

Molecule `CCc1c(OCc2ccc(Cl)cc2)cnn(C(C)(C)C)c1=O` yielded a melting point of 86 to 88 °C.

Regarding `CCOC(=O)c1c(OC)c([N+](=O)[O-])cn1C`, the melting point fell in the range of 145 to 147 °C.

On to `COc1cc(CC(=O)NCCCc2ccc(C)c(C)c2)ccc1OCCNCCO`, for which the melting point was in the range of 76 to 79 °C.

`Cc1c(N2CCC(N(C)C)C(C)(C)C2)c(F)cc2c(=O)c(C(=O)O)cn(C3CC3)c12` (configuration not stated) gave a melting point of 209 to 210 °C.

`Cc1ccc(S(=O)(=O)NC2(c3ccccc3)C3=NCC(C)(C)CN3c3ccccc32)cc1` (configuration not stated): the melting point lay in the range of 224 to 226 °C.

Consider `N#Cc1ccccc1-c1cccc(-n2cnc3cc(-c4cnco4)ccc32)c1`, for which the melting point was 222 to 226 °C.

For `Nc1cc(C2=NOC(c3cc(Cl)cc(Cl)c3)(C(F)(F)F)C2)ccc1C(=O)NCC(F)(F)F` (configuration not stated), the melting point is 78 to 79 °C.

`CS(=O)c1ccccc1CN1CCC(=O)C(C(c2ccc(F)cc2)c2ccc(F)cc2)C1` (configuration not stated) showed a melting point of 187 to 189 °C.

In the case of `N=C(N)Nc1nc2ccc(C(F)(F)F)cc2[nH]1`, the melting point lay within 206 to 209 °C.

The molecule `CC(C)(C)C(=O)CC(Sc1ccccc1)c1ccc(Cl)cc1` (configuration not stated) showed a melting point of 127 to 128 °C.

In turn, `CCCCCc1cn(CCCC)c(=O)n1Cc1ccc(-c2ccccc2-c2nnn[nH]2)nc1` yielded a melting point of 176 to 177 °C.

`C[C@H]1[C@H](N(C)C)CN1c1cc2c(cc1F)c(=O)c(C(=O)O)cn2C1CC1` (relative stereo) registered a melting point of 181 to 185 °C.

Take `Cc1n[nH]c(=O)c(-c2c(F)cc(F)cc2F)c1-c1ccc2ccccc2c1`: the melting point was 266 to 268 °C.

The molecule `CC(=O)SCC(Cc1ccccc1)C(=O)Nc1cc(C(=O)O)ccc1N1CCCCC1` (configuration not stated) displayed a melting point of 170 to 174 °C.

As for `CCn1ncc2c1ncc1c(=O)n3nccc3n(CCC(C)C)c12`, the melting point is 167 to 168 °C.

Molecule `COC(=O)c1cccc(-c2cccc(N)c2)c1` came in with a melting point of 63 to 65 °C.

In turn, `COc1cc(OC)c2[nH]c3c(C(=O)Nc4ccc(CCN(C)Cc5ccc(OC)c(OC)c5)cc4)cccc3c(=O)c2c1` had a melting point of more than 260 °C.

The molecule `COc1ccc(Br)cc1-c1nc(N)nc(N)n1` showed a melting point of 294 to 297 °C.

Turning to `CCCCOC(=O)N1CCN(C(=O)c2cc(S(=O)(=O)N(C)C)ccc2N)CC1`, the melting point fell in the range of 175 to 177 °C.

Regarding `COc1ccc2c(c1)c(CC(=O)O)c(C)n2C(=O)c1ccc(OC(F)(F)F)cc1`, the melting point is 136 to 138 °C.

For `COc1ccc(Nc2nc(NCCN)nc(NC3CCCCCC3)n2)cc1Cl`, the melting point came to 77 °C.

As for `NC(=O)c1sc2nc(N3CCC(NCC(O)c4ccncc4)CC3)cc(C(F)(F)F)c2c1N` (configuration not stated), the melting point lay in the range of 217 to 220 °C.

The molecule `Cc1cc(N=C2NCCN2)cc(NS(C)(=O)=O)c1` yielded a melting point of 54 to 77 °C.

The molecule `Cc1ccc(N)cc1C(=S)OC(C)(C)C` showed a melting point of 76 to 78 °C.

For the molecule `CC(C)Sc1cc(SC(C)C)c2ccc3c(SC(C)C)cc(SC(C)C)c4ccc1c2c43`, the melting point worked out at 108 °C.

In turn, `COc1cc(OC)cc(N2CCN(C(=S)Nc3nc(C)c(C)nc3OC)CC2)c1` displayed a melting point of 71 to 73 °C.

Regarding `O=C(Nc1ccc2ccc(Oc3ccc(Cl)cc3)nc2n1)c1ccccc1`, the melting point turned out to be 148 °C.
